For one assay, the target named is T1, APP-CTF (Homo sapiens, UniProt P05067).
T1 construct: this protein was designated α-secretase-derived APP CTF (CTF83) on the basis of molecular weight; expressed in transfected cells
The experiment in a line: Photoaffinity labelling of APP and APP CTF in H4 cell membrane fractions and competition. Conditions: photoprobe 25 μM, competitor 200 μM. In kind it is binding. The procedure: Photoaffinity labelling. All experiments used the following general protocol. Samples (recombinant or synthetic peptides, cell lysates and membrane preparations) were exposed in borosilicate test tubes to ultraviolet light (350 nm) in a Rayonet Photoreactor R100 (RPR-3500 lamps, Southern New England Ultra Violet Company) in a cold room (4° C.) for 30 minutes or as otherwise noted. Crosslinked samples were analyzed by ELISA for biotin incorporation, or analyzed directly by SDS-PAGE (Criterion-XT, Bio-Rad), or after precipitation with streptavidin ultralink plus beads (Pierce). After immunblotting, proteins were detected using chemiluminesence (ECL Plus, GEHealthcare) or near-infrared fluorescence (LiCor Odyssey). Full-length APP and APP CTFs (CTF83, CTF99) were detected with CT20, a rabbit polyclonal antibody against the C-terminus of APP. Biotin was detected with an affinity-purified rabbit polyclonal antibody (Bethyl). Cell-based screens for amyloid-β modulation.

For the next assay, the system named is Tg2576 mice. The experiment in a line: Acute oral dosing of Tg2576 mice, brain soluble Aβ after 4 hours. In kind it is in vivo, mouse. The procedure:
FIG. 2. Aβ modulating agents can inhibit Aβ aggregation, and agents that bind Aβ amyloid can modulate Aβ42 production. […] (C) Aβ42 modulating agents inhibit naturally secreted oligomer formation. 7PA2 cells were treated with fenofibrate, FT-1, or FT-9 at 50 μM and oligomers assessed by IP Western blotting. […] (D) FT-9, an Aβ42 reducing agent, can inhibit Aβ42 aggregation in vitro.
FIG. 13. Compounds that bind Aβ are GSMs in vitro and in vivo. (A) A cell-based screen of Aβ-binders identified molecules that increase Aβ42 (DAPH) or decrease Aβ42 (Bis-ANS, X-34 or chrysamine G (CG)). Data are mean±s.e.m., n=3. (B) X-34 is an Aβ42-lowering GSM. Changes in amyloid-β peptide amounts after X-34 treatment are shown. Data are presented as percentage control±s.e.m., n=3. EC50 values were calculated. […] NA, not applicable. (C) X-34 binds to APP(C100)-Flag and decreases labeling by GSM photoprobes. Biotin incorporation into APP by Fen-B and Flurbi-BpB is presented as percentage of control (peptide without X-34)±s.e.m., n=2. (D) X-34 lowers Aβ42 in Tg2576 mice after 4 h. […] Data are presented as amyloid-β percentage of control relative to vehicle±s.e.m. Animals per group (n). Asterisk, P,0.05; two asterisks, P,0.01; ANOVA with Dunnett's post-hoc analysis.
Finally, X-34 was tested for its ability to modulate Aβ42 amounts in an APP transgenic mouse (Tg2576).

Another assay has as its system APP wild-type cells. In words: Aβ modulation in APP wild-type cells. It counts as cell-based. The conditions noted are these: APP wild-type cells; read-out: EC50, lowering of Aβ42. The procedure:
(§1) (A) and (B) The sequences of wildtype (WT; A) APP and the mutated substrate (B) containing the homologous region (italic, underlined) of the NOTCH transmembrane domain (TMD) in APP where GSMs are hypothesized to bind. […] Bottom row, FT-1 ([…]) raised Aβ42 200% in APP wild-type cells (A); however, in APP-NOTCH TMD cells (B), FT-1 caused minimal changes in the Aβ42 (95%) or Aβ40 (90%) signal. Data are presented as amyloid-β percentage of control±s.e.m., n=3.
FIG. 19. Substitution of human Notch sequence in the APP transmembrane domain (TMD) changes sensitivity to modulation. (A) Site-directed mutagenesis was used to exchange the analogous region of the human Notch TMD (bold and underlined) for a section (bold and underlined) of wild-type APP (APPwt) we have shown to be labeled by GSMs. The new substrate (APP-Notch TMD) is cleaved by γ-secretase primarily after valine and alanine residues corresponding to 40 and 42 in APPwt (arrows). […] The beginning (1) N-terminal amino acid (AA) to the ending C-terminal AA is shown above each peak, with the molecular weight (m/z) below. 1-40 and 1-42 are detected as the two major species in APP-Notch TMD conditioned media. It should be noted that the mutagenesis strategy to create APPNotch TMD led to a single AA deletion relative to APPwt. […] Both cell lines were treated (6 hours) with L-685,458 (10 μM), which is hypothesized to target the active site aspartate residues, media was collected, and analyzed for changes in Aβ levels. […]
To test the hypothesis that mutation of the GSM binding site in APP should alter sensitivity to GSMs, a portion of the GSM binding site in APP was exchanged with the analogous region of human NOTCH (FIGS. 18A and 18B; FIG. 19). […] Although the molecular weight and abundance of each chimeric peptide differed from amyloid-β peptides from APP, the main species produced from the APP-NOTCH TMD construct had identical C-termini to Ab1-40 and Ab1-42, and could be quantified by enzyme-linked immunosorbent assays (ELISAs; FIG. 19). […]

In another assay the test system is APP-NOTCH TMD cells. The experiment in a line: Aβ modulation in APP-NOTCH TMD cells. It counts as cell-based, human. The conditions noted are these: APP-NOTCH TMD line. The procedure: as §1
FIG. 19. Substitution of human Notch sequence in the APP transmembrane domain (TMD) changes sensitivity to modulation. (A) Site-directed mutagenesis was used to exchange the analogous region of the human Notch TMD (bold and underlined) for a section (bold and underlined) of wild-type APP (APPwt) we have shown to be labeled by GSMs. The new substrate (APP-Notch TMD) is cleaved by γ-secretase primarily after valine and alanine residues corresponding to 40 and 42 in APPwt (arrows). […] The beginning (1) N-terminal amino acid (AA) to the ending C-terminal AA is shown above each peak, with the molecular weight (m/z) below. 1-40 and 1-42 are detected as the two major species in APP-Notch TMD conditioned media. It should be noted that the mutagenesis strategy to create APPNotch TMD led to a single AA deletion relative to APPwt. The correct change in molecular weight caused by the introduced mutations were confirmed by the mass spectrum. For simplicity the peptides are referenced by their C-terminal residues relative to Aβ (40, 42, etc). Representative mass spectra are shown from multiple IP reactions (3) and duplicate spots. […] Both cell lines were treated (6 hours) with L-685,458 (10 μM), which is hypothesized to target the active site aspartate residues, media was collected, and analyzed for changes in Aβ levels. The 40 and 42 Aβ reactive species from both cell lines were inhibited by L-685,458 with equal sensitivity (no significant difference; 40 p>0.5; 42 p>0.4; t test; n=3).
To test the hypothesis that mutation of the GSM binding site in APP should alter sensitivity to GSMs, a portion of the GSM binding site in APP was exchanged with the analogous region of human NOTCH (FIGS. 18A and 18B; FIG. 19). The chimeric construct was used because the NOTCH transmembrane domain (TMD) appears resistant to GSM effects. The APP NOTCH TMD construct produced a spectrum of chimeric amyloid-β species in conditioned cell media (FIG. 19). Although the molecular weight and abundance of each chimeric peptide differed from amyloid-β peptides from APP, the main species produced from the APP-NOTCH TMD construct had identical C-termini to Ab1-40 and Ab1-42, and could be quantified by enzyme-linked immunosorbent assays (ELISAs; FIG. 19). The relative sensitivity to GSMs of APP-NOTCH TMD versus APP was assayed in stably transfected cells. […]

The structures appear in SMILES notation.

As usually defined, the EC50 is the midpoint of the concentration-response curve.

T1 sequence (P05067 688-770 limits assumed): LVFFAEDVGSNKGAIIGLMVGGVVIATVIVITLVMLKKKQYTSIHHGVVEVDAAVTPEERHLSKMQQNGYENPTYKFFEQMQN

On to `O=C(O)c1cc(C=Cc2ccc(C=Cc3ccc(O)c(C(=O)O)c3)cc2)ccc1O` [X-34, 1,4-bis(3-carboxy-4-hydroxyphenylethenyl)-benzene], for which the “competition of APP-CTF labeling by Fen-B and Flurbi-BpB” value at APP-CTF is “decreases labeling of APP-CTF”. For the same compound, in the assay on Tg2576 mice (100 mg kg21, Tg2576 mice, 4 h), the “Aβ40 in the brains” value is reported as “no effects” and the “decrease of soluble Aβ42 in the brains” value is 35%. Besides, the “selectivity of Aβ reduction (Aβ42 vs Aβ40)” value in the assay with Tg2576 mice (Tg2576, oral gavage, 4 hours) is “selective reductions of Aβ42”. In addition, the EC50 in the assay on APP wild-type cells was 5.9 µM. Besides, the “Aβ40 or Aβ42 concentrations” value in the assay on APP-NOTCH TMD cells is on record as “did not change either Aβ40 or Aβ42 concentrations”.

Values taken from patent US20110021471A1, “REDUCING Abeta42 LEVELS AND Abeta AGGREGATION” (priority 2007, published 2011).
